Assay: Hot solution temperature: homogeneous solution of active with excipient or second active
Assay type: physicochemical
Procedure: Numerous materials may act to form solutions of agrochemicals at elevated temperature. The solubility of MCPA, 2,4-D) and mecoprop with a range of common excipients was assessed at elevated temperature. To establish the melting behaviour of the individual actives, each active (1.25 g) was weighed into a 40 mL vial and heated gradually using a hotplate and Asynt heating insert until full melted, and the melting range was noted. […] To establish hot solvent behaviour, a range of excipients were weighed into 40 mL vials (0.676 g) with each chosen active (1.25 g). The mixtures were then heated gradually until a fully homogeneous solution was observed and the temperature was noted as described above. Additionally, the potential for agrochemicals to act as solvents for a second agrochemical at elevated temperature was also studied by combining the active ingredients in a ratio of 1.85:1 active:active ‘solvent’ following the same procedure as described above. For example, in a mixture where the first active was MCPA (1.25 g) and the second was mecoprop (0.676 g) both actives were added to a 40 mL vial and heated following the procedure detailed above. Where a homogeneous phase is observed below the measured melting point of the study active ingredient, a hot solution is considered to have been formed and the excipient is deemed to act as a solvent at elevated temperature.
Where the “solvent” is listed as “None”, the temperature stated represents the formation of a homogeneous melt.

O=C(O)COc1ccc(Cl)cc1Cl [2,4-D, 2,4-dichlorophenoxyacetic acid]
Solution temp range (° C.) (2nd active Dichloroprop-P as solvent, ratio 1.85:1): 130-132 °C
Solution temp range (° C.) (2nd active MCPA as solvent, ratio 1.85:1): 140-142 °C
Solution temp range (° C.) (2nd active Mecoprop as solvent, ratio 1.85:1 active:active solvent): 130-131 °C
temperature range where homogeneous solutions formed (° C.) (solvent 1,2-Propanediol): 110-112 °C
temperature range where homogeneous solutions formed (° C.) (solvent Altox 4894): 121-125 °C
temperature range where homogeneous solutions formed (° C.) (solvent Altox 4912): 138-140 °C
temperature range where homogeneous solutions formed (° C.) (solvent Altox 4913): 116-120 °C
temperature range where homogeneous solutions formed (° C.) (solvent Atlas G5000): 129-131 °C
temperature range where homogeneous solutions formed (° C.) (solvent Atlox 4915): 134-137 °C
temperature range where homogeneous solutions formed (° C.) (solvent Atlox 4916): 140-141 °C
temperature range where homogeneous solutions formed (° C.) (solvent Atplus 245): 123-126 °C
temperature range where homogeneous solutions formed (° C.) (solvent Atplus PFA): 127-130 °C
temperature range where homogeneous solutions formed (° C.) (solvent Atplus UEP): 132-135 °C
temperature range where homogeneous solutions formed (° C.) (solvent Crodamol AB): 136-138 °C
temperature range where homogeneous solutions formed (° C.) (solvent Crodamol GTCC): 138-140 °C
temperature range where homogeneous solutions formed (° C.) (solvent Dipropylene glycol dimethyl ether): 114-116 °C
temperature range where homogeneous solutions formed (° C.) (solvent Genapol X020): 118-121 °C
temperature range where homogeneous solutions formed (° C.) (solvent Genapol X050): 120-123 °C
temperature range where homogeneous solutions formed (° C.) (solvent Genapol X060): 118-122 °C
temperature range where homogeneous solutions formed (° C.) (solvent Genapol X080): 118-121 °C
temperature range where homogeneous solutions formed (° C.) (solvent Glycerol, 1.25 g active, 0.676 g excipient): 116-118 °C
temperature range where homogeneous solutions formed (° C.) (solvent Multiwet MO85): 140-143 °C
temperature range where homogeneous solutions formed (° C.) (solvent PEG 400): 122-123 °C
temperature range where homogeneous solutions formed (° C.) (solvent PEG 1000): 124-126 °C
temperature range where homogeneous solutions formed (° C.) (solvent PEG 4000): 134-136 °C
temperature range where homogeneous solutions formed (° C.) (solvent Pluronic F68): 137-140 °C
temperature range where homogeneous solutions formed (° C.) (solvent Pluronic F127): 137-140 °C
temperature range where homogeneous solutions formed (° C.) (solvent Propylene glycol): 110-112 °C
temperature range where homogeneous solutions formed (° C.) (solvent Synperonic PE/L31): 129-130 °C
temperature range where homogeneous solutions formed (° C.) (solvent Synperonic PE/L64): 132-135 °C
temperature range where homogeneous solutions formed (° C.) (solvent Synprolam 35X15): 123-126 °C
temperature range where homogeneous solutions formed (° C.) (solvent Tween 22): 120-124 °C
temperature range where homogeneous solutions formed (° C.) (solvent Tween 23): 120-124 °C
temperature range where homogeneous solutions formed (° C.) (solvent Tween 24): 120-124 °C
